Test results taken from PubChem BioAssay (NCI).
Values joined by “and” are separate entries in the source; they are usually repeats but may differ in a detail not shown here. Identical values can stand only once.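 96-well plates; 48 h exposure; 5 concentrations. Endpoints by linear interpolation between flanking doses. Not reached: highest tested concentration assigned. Abbreviation: GI50, concentration required for 50% inhibition of growth. The concentration for full growth arrest is given as TGI.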

Tests used:
Experiment in all cases: NCI-60 cell line screen, 48 h
HL-60(TB) leukemia = test system: HL-60(TB) leukemia
HOP-62 NSCLC = test system: HOP-62 NSCLC
HS 578T breast = test system: HS 578T breast
LOX IMVI melanoma = test system: LOX IMVI melanoma
M14 melanoma = test system: M14 melanoma
MCF7 breast = test system: MCF7 breast
SR leukemia = test system: SR leukemia
T-47D breast = test system: T-47D breast
TK-10 renal = test system: TK-10 renal
UACC-62 melanoma = test system: UACC-62 melanoma

Structure (SMILES)	GI50 (HL-60(TB) leukemia) [µM]	TGI (HL-60(TB) leukemia)	GI50 (HOP-62 NSCLC) [µM]	TGI (HOP-62 NSCLC)	GI50 (HS 578T breast) [µM]	TGI (HS 578T breast)	GI50 (LOX IMVI melanoma) [µM]	TGI (LOX IMVI melanoma)	GI50 (M14 melanoma) [µM]	TGI (M14 melanoma)	GI50 (MCF7 breast) [µM]	TGI (MCF7 breast)	GI50 (SR leukemia) [µM]	TGI (SR leukemia)	GI50 (T-47D breast) [µM]	TGI (T-47D breast) [µM]	GI50 (TK-10 renal) [µM]	TGI (TK-10 renal) [µM]	GI50 (UACC-62 melanoma) [µM]	TGI (UACC-62 melanoma)
CC(=O)c1cc(-c2ccccc2N)n(-c2ccc3c(c2)OCO3)c1C	0.217	0.592 µM	0.435	> 100 µM	0.303	> 85.4 µM	0.297	> 100 µM	0.279	75 µM	0.32	> 100 µM	0.223	19.1 µM	0.852	> 100	0.623	> 100	0.227	23 µM
COc1nc(C)cc2c(=O)n(-c3ccccc3)n(CC(O)CN3CCN(c4ccc(Cl)cc4)CC3)c(=O)c12 (centres undefined)	> 50	> 50 µM	37.9	> 50 µM	18.8	> 50 µM	> 50	> 50 µM	> 50	> 50 µM	46.1	> 50 µM	> 50	> 50 µM	> 50	> 50	> 50	> 50	46.6	> 50 µM
Nc1cc2[nH]cnc2c(=O)[nH]1	–	178 µM	–	> 191 µM	–	> 300 µM	–	> 300 µM	–	> 300 µM	–	> 300 µM	–	> 94.9 µM	–	> 300	–	> 300	–	> 300 µM
COC(=O)C(=O)C(C(=O)C(N)=O)c1nc2ccc(C(=O)c3ccccc3)cc2[nH]c1=O (centres undefined)	–	> 100 µM	–	> 100 µM	–	> 100 µM	–	> 100 µM	–	> 100 µM	–	> 100 µM	–	> 100 µM	–	> 100	–	> 100	–	> 100 µM
COc1cc2c(c(OC)c1OC)-c1ccc(O)c(=O)cc1[C@@H](NC(C)=O)CC2	3.31	15.6 µM and 32.7 µM	10.7	> 100 µM and 65.9 µM	14.3	> 100 µM and 71.4 µM	5.89	> 100 µM and 60.1 µM	9.54	60.7 µM and 78.2 µM	4.37	> 100 µM and 63.5 µM	4.74	97.9 µM and 18.1 µM	8.84	> 100	–	> 100	3.82	18.1 µM and 30 µM
CN(C)CCCc1c2ccccc2nc2ccc(Cl)cc12	–	40.3 µM	–	30 µM	–	34.4 µM	–	29.1 µM	–	27.8 µM	–	23.7 µM	–	44.1 µM	–	> 100	–	27.1	–	34.2 µM
COc1cc2c3c(c1OC)C1(C=CC(=O)C=C1)CC3NCC2 (centres undefined)	–	> 100 µM	–	> 100 µM	–	> 100 µM	–	> 100 µM	–	> 100 µM	–	> 100 µM	–	> 100 µM	–	> 100	–	> 100	–	> 100 µM
CCCCNC(=O)Oc1ccc(/C(=C(/CC)Cc2ccccc2)c2ccc(OCCN3CCCCCC3)cc2)cc1	16.5	40 µM	70.8	> 100 µM	19.7	44.1 µM	17	30.7 µM	17.7	33.9 µM	6.32	59.6 µM	14.6	41.1 µM	14.5	36.9	26.7	90.5	19.6	38 µM
COc1cc(/C=C2\CC3C4CC=C5C[C@@H](O)CC[C@]5(C)C4CC[C@]3(C)C2=O)ccc1OCCCn1ccnc1 (some centres undefined)	19.4	37.3 µM	19.4	34.1 µM	26.9	53.7 µM	0.509	16.4 µM	15.2	33.3 µM	18.8	37.7 µM	24.1	41.9 µM	29.3	> 100	20.4	35.9	17.3	35.3 µM
CC(=O)c1cccc(-c2cccc(-c3ccn(CCN4CCOCC4)n3)c2)c1	> 20	> 20 µM	> 20	> 20 µM	> 20	> 20 µM	> 20	> 20 µM	> 20	> 20 µM	> 20	> 20 µM	> 20	> 20 µM	17.4	> 20	> 20	> 20	> 20	> 20 µM
CCOC(=O)Nc1nc2cc(OCC)ccc2s1	4.85	> 100 µM	38.4	> 100 µM	50	> 100 µM	> 47.4	> 100 µM	8.94	> 100 µM	5.01	> 100 µM	1.52	> 100 µM	35	> 100	> 72.9	> 100	58.3	> 100 µM
